The values below are quoted from earlier work in patent US10730918B2, “Trap 63” (STRAUMANN HOLDING AG, priority 2013, dated 2020).

For this series, the system named is cementoblasts. The conditions noted are these: Boabaid et al 2004.

For the molecule “LRAP: leucine-rich amelogenin polypeptide; SEQ ID NO: 4 identical to sequence in Boabaid et al 2004 (MPLPPHPGHPGYINFSYEVLTPLKWYQNMIRHPSLLPDLPLEAWPATDKTKREEVD; sus scrofa domesticus)”, the “effect on cell proliferation” value is given as “not to have any effect” and the “number of cementoblasts in cell culture” value is “decreased”.

B1: full length amelogenin: full length amelogenin, major constituent of the enamel matrix (protein, UniProt Q99217 1-191, looked up)
chain: MGTWILFACLLGAAFAMPLPPHPGHPGYINFSYEVLTPLKWYQSIRPPYPSYGYEPMGGWLHHQIIPVLSQQHPPTHTLQPHHHIPVVPAQQPVIPQQPMMPVPGQHSMTPIQHHQPNLPPPAQQPYQPQPVQPQPHQPMQPQPPVHPMQPLPPQPPLPPMFPMQPLPPMLPDLTLEAWPSTDKTKREEVD
modifications: full-length
notes: full length amelogenin, major constituent of the enamel matrix
Consider B1, for which the “effect on cell proliferation” value is on record as “no reported effect”.
